Test results from patent publication US10172954B2, “Use of a reverse-micellar system for delivering chelators of radionuclides and metals” (priority 2014, dated 2019).

Assays:
[1] = oral delivery; DTPA highly polar at neutral pH; cited from earlier work
[2] = Pu decorporation in rats contaminated i.v. with plutonium citrate, chronic intrarectal treatment, liver and femur alpha activity; conditions: cumulative CaNa3DTPA doses 44.3 to 307.6 μmol/kg, rectal, treatment from D+4

Structure (SMILES)	absorbed when delivered orally [1] [%]	efficacy of decorporation in liver or bone Pu deposits as a function of cumulative dose [2]
O=C(O)CN(CCN(CC(=O)O)CC(=O)O)CCN(CC(=O)O)CC(=O)O [DTPA, diethylene triaminopentaacetic acid]	< 10	
O=C([O-])CN(CCN(CC(=O)[O-])CC(=O)[O-])CCN(CC(=O)[O-])CC(=O)[O-].[Ca+2].[Na+].[Na+].[Na+] [CaNa3DTPA, pentetate calcium trisodium]		proportional to the administered dose cumulative
